Results: PubChem BioAssay (NCI)
Values joined by “and” are separate entries in the source; they are usually repeats but may differ in a detail not shown here. Equal values may be shown once.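 Grown in 96-well plates, cells were treated for 48 hours with each compound at five concentrations. Insufficient inhibition: endpoint recorded as highest concentration tested. Here, GI50 denotes the concentration required for 50% inhibition of growth. TGI: concentration producing complete growth inhibition.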

Legend:
Test in all cases: growth of human tumour cells (NCI), 48 h
NCI-H23 lung = system: NCI-H23 lung
SK-MEL-28 melanoma = system: SK-MEL-28 melanoma
HCC-2998 colon = system: HCC-2998 colon
HCT-15 colon = system: HCT-15 colon
ACHN renal = system: ACHN renal
OVCAR-3 ovarian = system: OVCAR-3 ovarian
SF-539 CNS = system: SF-539 CNS
SK-MEL-5 melanoma = system: SK-MEL-5 melanoma
T-47D breast = system: T-47D breast
MCF7 breast = system: MCF7 breast

CC1(C)OC[C@@H]([C@@]2(CO[Si](c3ccccc3)(c3ccccc3)C(C)(C)C)CC=CC(=O)O2)O1
GI50 (NCI-H23 lung): 10.2 µM | TGI (NCI-H23 lung): 40.2 µM | GI50 (SK-MEL-28 melanoma): 16.7 µM | TGI (SK-MEL-28 melanoma): 48.3 µM | GI50 (HCC-2998 colon): 13.7 µM | TGI (HCC-2998 colon): 28.9 µM | GI50 (HCT-15 colon): 5.86 µM | TGI (HCT-15 colon): 58.6 µM | GI50 (ACHN renal): 11.4 µM | TGI (ACHN renal): 36.6 µM | GI50 (OVCAR-3 ovarian): 4.3 µM | TGI (OVCAR-3 ovarian): > 100 µM | GI50 (SF-539 CNS): 3.68 µM | TGI (SF-539 CNS): 9.82 µM | GI50 (SK-MEL-5 melanoma): 4.65 µM | TGI (SK-MEL-5 melanoma): 19.4 µM | GI50 (T-47D breast): 8.03 µM | TGI (T-47D breast): > 100 µM | GI50 (MCF7 breast): 4.83 µM | TGI (MCF7 breast): > 100 µM

CSC1=Nc2c(c(C)c(C)n2COC(CO)CO)C2=NC(=O)CN12
GI50 (NCI-H23 lung): > 100 µM | TGI (NCI-H23 lung): > 100 µM | GI50 (SK-MEL-28 melanoma): > 100 µM | TGI (SK-MEL-28 melanoma): > 100 µM | GI50 (HCC-2998 colon): > 100 µM | TGI (HCC-2998 colon): > 100 µM | GI50 (HCT-15 colon): > 100 µM | TGI (HCT-15 colon): > 100 µM | GI50 (ACHN renal): > 100 µM | TGI (ACHN renal): > 100 µM | GI50 (OVCAR-3 ovarian): > 100 µM | TGI (OVCAR-3 ovarian): > 100 µM | GI50 (SF-539 CNS): > 100 µM | TGI (SF-539 CNS): > 100 µM | GI50 (SK-MEL-5 melanoma): > 100 µM | TGI (SK-MEL-5 melanoma): > 100 µM | GI50 (T-47D breast): > 100 µM | TGI (T-47D breast): > 100 µM | GI50 (MCF7 breast): > 100 µM | TGI (MCF7 breast): > 100 µM

CC(C)(CO)CNC(=O)c1ccc2[nH]c(O)c(N=Nc3ccc(S(N)(=O)=O)cc3)c2c1
GI50 (NCI-H23 lung): > 25 µM | TGI (NCI-H23 lung): > 25 µM | GI50 (SK-MEL-28 melanoma): > 25 µM | TGI (SK-MEL-28 melanoma): > 25 µM | GI50 (HCC-2998 colon): > 25 µM | TGI (HCC-2998 colon): > 25 µM | GI50 (HCT-15 colon): > 25 µM | TGI (HCT-15 colon): > 25 µM | GI50 (ACHN renal): > 25 µM | TGI (ACHN renal): > 25 µM | GI50 (OVCAR-3 ovarian): > 25 µM | TGI (OVCAR-3 ovarian): > 25 µM | GI50 (SF-539 CNS): > 25 µM | TGI (SF-539 CNS): > 25 µM | GI50 (SK-MEL-5 melanoma): > 25 µM | TGI (SK-MEL-5 melanoma): > 25 µM | GI50 (T-47D breast): > 25 µM | TGI (T-47D breast): > 25 µM | GI50 (MCF7 breast): > 25 µM | TGI (MCF7 breast): > 25 µM

Cc1cc(O)c2c(c1)C(=O)C=CC2=O
TGI (NCI-H23 lung): 27.9 µM and 23 µM | GI50 (SK-MEL-28 melanoma): 20.4 µM and 8.89 µM | TGI (SK-MEL-28 melanoma): 35.5 µM and 23.6 µM | TGI (HCC-2998 colon): 25.4 µM and 30 µM | GI50 (HCT-15 colon): 7.78 µM and 3.53 µM | TGI (HCT-15 colon): 24.9 µM and 9.83 µM | GI50 (ACHN renal): 4.43 µM and 4 µM | TGI (ACHN renal): 8.57 µM and 15.6 µM | TGI (OVCAR-3 ovarian): 10 µM and 10.2 µM | TGI (SF-539 CNS): 31.4 µM and 30.8 µM | GI50 (SK-MEL-5 melanoma): 7.53 µM and 2.27 µM | TGI (SK-MEL-5 melanoma): 22.4 µM and 6.77 µM | TGI (T-47D breast): 7.47 µM and 16.4 µM | TGI (MCF7 breast): 11.3 µM and 21.8 µM

CC1(C)N=C(N)N=C(N)N1c1ccc(CCC(=O)Nc2ccc(S(=O)(=O)F)cc2)cc1
GI50 (NCI-H23 lung): 2.19 µM | TGI (NCI-H23 lung): > 100 µM | GI50 (SK-MEL-28 melanoma): 8.22 µM | TGI (SK-MEL-28 melanoma): > 100 µM | GI50 (HCC-2998 colon): 3.85 µM | TGI (HCC-2998 colon): > 100 µM | GI50 (HCT-15 colon): 3.48 µM | TGI (HCT-15 colon): > 100 µM | GI50 (ACHN renal): 7.34 µM | TGI (ACHN renal): > 100 µM | GI50 (OVCAR-3 ovarian): 8.03 µM | TGI (OVCAR-3 ovarian): > 100 µM | GI50 (SF-539 CNS): 2.94 µM | TGI (SF-539 CNS): > 94.1 µM | GI50 (SK-MEL-5 melanoma): 0.774 µM | TGI (SK-MEL-5 melanoma): 57 µM | GI50 (T-47D breast): 16.2 µM | TGI (T-47D breast): > 100 µM | GI50 (MCF7 breast): 1.8 µM | TGI (MCF7 breast): > 100 µM

N#CC1c2ccccc2C=CN1C(=O)CCCl (centres undefined)
GI50 (NCI-H23 lung): 17.6 µM | TGI (NCI-H23 lung): 40.9 µM | GI50 (SK-MEL-28 melanoma): 10.7 µM | TGI (SK-MEL-28 melanoma): 24 µM | GI50 (HCC-2998 colon): 16.9 µM | TGI (HCC-2998 colon): 32 µM | GI50 (HCT-15 colon): 2.87 µM | TGI (HCT-15 colon): 9.55 µM | GI50 (ACHN renal): 1.73 µM | TGI (ACHN renal): 3.22 µM | GI50 (OVCAR-3 ovarian): 2.51 µM | TGI (OVCAR-3 ovarian): 6.1 µM | GI50 (SF-539 CNS): 8.06 µM | TGI (SF-539 CNS): 22.3 µM | GI50 (SK-MEL-5 melanoma): 16.6 µM | TGI (SK-MEL-5 melanoma): 30.6 µM | GI50 (T-47D breast): 3.65 µM | TGI (T-47D breast): 17.1 µM | GI50 (MCF7 breast): 2.6 µM | TGI (MCF7 breast): 12.5 µM

CNC(=O)c1ncccc1Nc1nc(Nc2cc3c(cc2OC)CCCN3C(=O)CN(C)C)nc2[nH]ccc12
GI50 (NCI-H23 lung): 0.476 µM | TGI (NCI-H23 lung): 3.07 µM | GI50 (SK-MEL-28 melanoma): 3.18 µM | TGI (SK-MEL-28 melanoma): 6.77 µM | GI50 (HCC-2998 colon): 0.518 µM | TGI (HCC-2998 colon): 4.12 µM | GI50 (HCT-15 colon): 1.84 µM | TGI (HCT-15 colon): 9.35 µM | GI50 (ACHN renal): 3.23 µM | TGI (ACHN renal): 6.72 µM | GI50 (OVCAR-3 ovarian): 0.986 µM | TGI (OVCAR-3 ovarian): 3.39 µM | GI50 (SF-539 CNS): 1.57 µM | TGI (SF-539 CNS): 5.13 µM | GI50 (SK-MEL-5 melanoma): 0.618 µM | TGI (SK-MEL-5 melanoma): 3.37 µM | GI50 (T-47D breast): 3.37 µM | TGI (T-47D breast): 9.19 µM | GI50 (MCF7 breast): 0.073 µM | TGI (MCF7 breast): 2.73 µM

Cc1c(C(=N)C(C#N)C#N)c(=N)oc2c1ccc1ccccc12
GI50 (NCI-H23 lung): 16.8 µM | TGI (NCI-H23 lung): > 100 µM | GI50 (SK-MEL-28 melanoma): 22.5 µM | TGI (SK-MEL-28 melanoma): 60.8 µM | GI50 (HCC-2998 colon): 18 µM | TGI (HCC-2998 colon): 39.3 µM | GI50 (HCT-15 colon): 13.4 µM | TGI (HCT-15 colon): 72.5 µM | GI50 (ACHN renal): 23.1 µM | TGI (ACHN renal): > 100 µM | GI50 (OVCAR-3 ovarian): 14.7 µM | TGI (OVCAR-3 ovarian): 40.8 µM | GI50 (SF-539 CNS): 20.6 µM | TGI (SF-539 CNS): 71.5 µM | GI50 (SK-MEL-5 melanoma): 13.3 µM | TGI (SK-MEL-5 melanoma): 29.8 µM | GI50 (T-47D breast): 10.1 µM | TGI (T-47D breast): > 100 µM | GI50 (MCF7 breast): 5.34 µM | TGI (MCF7 breast): > 100 µM

CC(=O)ON1CCCC(P(=O)(OCOC(=O)C(C)(C)C)OCOC(=O)C(C)(C)C)C1=O (centres undefined)
GI50 (NCI-H23 lung): 0.91 µM | TGI (NCI-H23 lung): 4.25 µM | GI50 (SK-MEL-28 melanoma): 0.483 µM | TGI (SK-MEL-28 melanoma): 1.42 µM | GI50 (HCC-2998 colon): 0.803 µM | TGI (HCC-2998 colon): 3.5 µM | GI50 (HCT-15 colon): 0.534 µM | TGI (HCT-15 colon): 6.71 µM | GI50 (ACHN renal): 0.596 µM | TGI (ACHN renal): 13.5 µM | GI50 (OVCAR-3 ovarian): 0.775 µM | TGI (OVCAR-3 ovarian): 4.49 µM | GI50 (SF-539 CNS): 1.11 µM | TGI (SF-539 CNS): 5.8 µM | GI50 (SK-MEL-5 melanoma): 0.773 µM | TGI (SK-MEL-5 melanoma): 3.04 µM | GI50 (T-47D breast): 0.435 µM | TGI (T-47D breast): 7.5 µM | GI50 (MCF7 breast): 0.4 µM | TGI (MCF7 breast): 2 µM

CC1=C(C(=O)Nc2ccccc2)C(c2ccc(N(C)C)cc2)C(C(=O)Nc2ccccc2)=C(C)N1
TGI (NCI-H23 lung): > 100 µM | TGI (SK-MEL-28 melanoma): 36.6 µM | TGI (HCC-2998 colon): 23.4 µM | TGI (HCT-15 colon): 15.3 µM | TGI (ACHN renal): > 73.6 µM | TGI (OVCAR-3 ovarian): > 100 µM | TGI (SF-539 CNS): > 100 µM | TGI (SK-MEL-5 melanoma): 7.98 µM | TGI (T-47D breast): > 93.6 µM | TGI (MCF7 breast): > 100 µM
